One may read the Emax as the size of the effect at its maximum, as opposed to the concentration needed.

The source of these data is patent publication US20260297060A1, “COMPOUNDS FOR THE DEGRADATION OF MUTANT BRAF” (C4 THERAPEUTICS, INC., priority 2023, published 2026).

For the assay, the target named is T1, BRAF V600E (Homo sapiens, UniProt P15056+Q96SW2, V600E).
T1 construct: knock-in of the HiBiT tag to the endogenous BRAF V600E locus; host or cells: A375.10 (A375 clonal line, CRISPR HiBiT knock-in at the endogenous BRAF V600E locus)
T1 sequence (P15056 whole entry V600E): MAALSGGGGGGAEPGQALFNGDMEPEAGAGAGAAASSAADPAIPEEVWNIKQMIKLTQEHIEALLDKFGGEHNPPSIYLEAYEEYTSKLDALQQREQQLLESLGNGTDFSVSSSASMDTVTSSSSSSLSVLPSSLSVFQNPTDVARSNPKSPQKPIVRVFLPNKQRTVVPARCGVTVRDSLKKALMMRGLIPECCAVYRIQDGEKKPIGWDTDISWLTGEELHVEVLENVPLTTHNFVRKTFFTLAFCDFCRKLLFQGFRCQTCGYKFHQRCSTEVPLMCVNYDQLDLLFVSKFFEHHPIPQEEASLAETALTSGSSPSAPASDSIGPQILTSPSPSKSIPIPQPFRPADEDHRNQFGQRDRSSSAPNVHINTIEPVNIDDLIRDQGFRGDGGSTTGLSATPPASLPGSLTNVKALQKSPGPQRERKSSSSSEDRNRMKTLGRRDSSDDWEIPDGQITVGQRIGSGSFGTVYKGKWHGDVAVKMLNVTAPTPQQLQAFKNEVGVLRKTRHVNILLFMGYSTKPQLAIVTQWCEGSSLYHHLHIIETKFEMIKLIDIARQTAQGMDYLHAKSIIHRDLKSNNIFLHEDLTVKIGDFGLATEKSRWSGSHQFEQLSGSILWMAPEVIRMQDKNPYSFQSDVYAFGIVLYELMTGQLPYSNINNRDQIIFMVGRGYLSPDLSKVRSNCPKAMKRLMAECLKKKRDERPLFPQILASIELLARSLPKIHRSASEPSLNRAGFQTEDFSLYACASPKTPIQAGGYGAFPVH
T1 sequence (Q96SW2 whole entry): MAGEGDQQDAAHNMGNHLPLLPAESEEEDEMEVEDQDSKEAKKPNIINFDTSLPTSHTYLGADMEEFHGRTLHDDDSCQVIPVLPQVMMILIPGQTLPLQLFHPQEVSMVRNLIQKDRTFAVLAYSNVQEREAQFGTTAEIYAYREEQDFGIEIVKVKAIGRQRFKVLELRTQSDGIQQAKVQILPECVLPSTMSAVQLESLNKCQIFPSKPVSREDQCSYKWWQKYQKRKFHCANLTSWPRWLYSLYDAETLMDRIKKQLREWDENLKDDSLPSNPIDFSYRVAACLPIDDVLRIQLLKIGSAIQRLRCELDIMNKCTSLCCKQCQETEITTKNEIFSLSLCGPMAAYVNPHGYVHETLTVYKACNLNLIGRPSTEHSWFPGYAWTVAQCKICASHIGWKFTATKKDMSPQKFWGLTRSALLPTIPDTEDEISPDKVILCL
T1 sequence (Q16531 whole entry partner): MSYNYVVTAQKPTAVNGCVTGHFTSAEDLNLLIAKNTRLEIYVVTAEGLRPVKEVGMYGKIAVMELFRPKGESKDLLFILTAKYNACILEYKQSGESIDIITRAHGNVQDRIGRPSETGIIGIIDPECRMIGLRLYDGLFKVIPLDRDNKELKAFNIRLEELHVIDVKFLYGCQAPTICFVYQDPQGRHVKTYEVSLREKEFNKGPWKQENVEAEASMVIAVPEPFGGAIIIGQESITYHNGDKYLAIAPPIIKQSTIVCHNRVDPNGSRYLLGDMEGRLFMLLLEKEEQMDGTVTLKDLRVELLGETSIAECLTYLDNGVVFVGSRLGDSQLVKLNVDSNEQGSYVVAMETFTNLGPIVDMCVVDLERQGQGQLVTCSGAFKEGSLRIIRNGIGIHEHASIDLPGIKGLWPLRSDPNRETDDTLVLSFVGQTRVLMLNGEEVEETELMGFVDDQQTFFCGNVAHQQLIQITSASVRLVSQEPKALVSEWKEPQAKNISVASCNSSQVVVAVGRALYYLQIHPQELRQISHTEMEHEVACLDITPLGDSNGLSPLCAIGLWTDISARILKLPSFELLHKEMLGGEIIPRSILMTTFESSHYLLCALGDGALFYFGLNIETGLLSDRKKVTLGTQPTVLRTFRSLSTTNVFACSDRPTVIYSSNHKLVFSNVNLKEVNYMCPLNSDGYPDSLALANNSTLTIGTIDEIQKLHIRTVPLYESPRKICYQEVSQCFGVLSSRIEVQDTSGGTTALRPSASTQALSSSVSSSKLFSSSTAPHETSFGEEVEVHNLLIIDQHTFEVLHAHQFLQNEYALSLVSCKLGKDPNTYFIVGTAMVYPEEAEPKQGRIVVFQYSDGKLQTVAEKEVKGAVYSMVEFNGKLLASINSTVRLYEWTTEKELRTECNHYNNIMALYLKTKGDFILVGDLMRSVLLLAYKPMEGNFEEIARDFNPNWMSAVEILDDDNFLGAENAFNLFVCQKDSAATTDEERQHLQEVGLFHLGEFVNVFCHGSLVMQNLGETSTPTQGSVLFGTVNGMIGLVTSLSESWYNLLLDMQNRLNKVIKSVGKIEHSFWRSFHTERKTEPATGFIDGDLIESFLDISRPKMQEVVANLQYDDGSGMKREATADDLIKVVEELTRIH
Kind of assay: BRAF V600E HiBiT Degradation Assay. Type of assay: cell-based. The procedure, abridged: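 Endogenous HiBiT knock-in on BRAF V600E in A375 cells (clone A375.10); 11-point half-log series, top 10 μM, 2, 6 or 24 h at 37° C. Lytic HiBiT luminescence, background-subtracted, normalized to DMSO; 4-parameter fit gives DC50, Emax (residual protein) and IP (inflection point).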

Setting [1] is: A375.10 cells, BRAF V600E, 2 hours, inflection point, read-out: HiBiT-Degradation A375.10 BRAF 2 hours IP.
The mark [2] stands for this setting: A375.10 cells, BRAF V600E, 2 hours, read-out: HiBiT-Degradation A375.10 BRAF 2 hours DC50.
The mark [3] stands for this setting: read-out: HiBiT-Degradation A375.10 BRAF 2 hours Emax, A375.10 cells, BRAF V600E, 2 hours, residual protein remaining.
Setting [4] is: A375.10 cells, BRAF V600E, 2 hours, residual protein remaining, read-out: HiBiT-Degradation A375.10 BRAF 2 hours Emax.
[5] abbreviates: A375.10 cells, BRAF V600E, 6 hours, residual protein remaining, read-out: HiBiT-Degradation A375.10 BRAF 6 hours Emax.
The mark [6] stands for this setting: A375.10 cells, HiBiT, BRAF V600E, 24 hours, read-out: HiBiT-Degradation A375.10 BRAF 24 hours Emax.
The mark [7] stands for this setting: A375.10 cells, BRAF V600E, 6 hours, inflection point, read-out: HiBiT-Degradation A375.10 BRAF 6 hours IP.
Setting [8] is: A375.10 cells, BRAF V600E, 6 hours, read-out: HiBiT-Degradation A375.10 BRAF 6 hours DC50.
[9] abbreviates: A375.10 cells, HiBiT, BRAF V600E, 24 hours, read-out: HiBiT-Degradation A375.10 BRAF 24 hours DC50.
Where [10] appears, read: A375.10 cells, HiBiT, BRAF V600E, 24 hours, read-out: HiBiT-Degradation A375.10 BRAF 24 hours IP.

Structures are written as SMILES. Like-named read-outs stand apart in the source and are kept apart here.

In the case of `CCN(C)S(=O)(=O)Nc1ccc(F)c(Oc2ccc3ncn([C@@H]4CCC5(CCN(C6CCC(c7cc8c(cc7F)c(N7CCC(=O)NC7=O)nn8C)CC6)CC5)C4)c(=O)c3c2)c1C#N` (single isomer, unassigned) [Compound 31], the DC50 under setting [1] was less than 1 µM and the DC50 under setting [2] is greater than 10 µM. Moreover, the Emax under setting [3] was in the range of 50 to 90%.

As for `CCN(C)S(=O)(=O)Nc1ccc(F)c(Oc2ccc3ncn([C@H]4COC5(CCC(N6CCN(c7ccc(NC8CCC(=O)NC8=O)cc7F)CC6)CC5)C4)c(=O)c3c2)c1C#N` (stereo partly drawn) [Compound 40, 6-[2-cyano-3-[[ethyl(methyl)sulfamoyl]amino]-6-fluoro-phenoxy]-3-[(3R)-8-[4-[4-[(2,6-dioxo-3-piperidyl)amino]-2-fluoro-phenyl]piperazin-1-yl]-1-oxaspiro[4.5]decan-3-yl]-4-oxo-quinazoline], the Emax is 50 to 90% under setting [4], less than 50% under setting [5] and less than 50% under setting [6]. For the same compound, the DC50 is, setting by setting: (read-out: HiBiT-Degradation A375.10 BRAF 2 hours DC50, A375.10 cells, BRAF V600E, 2 hours) 1 to 10 µM; (read-out: HiBiT-Degradation A375.10 BRAF 2 hours IP, A375.10 cells, BRAF V600E, 2 hours, inflection point) less than 1 µM; (read-out: HiBiT-Degradation A375.10 BRAF 6 hours DC50, A375.10 cells, BRAF V600E, 6 hours) less than 1 µM; (read-out: HiBiT-Degradation A375.10 BRAF 6 hours IP, A375.10 cells, BRAF V600E, 6 hours, inflection point) less than 1 µM; (read-out: HiBiT-Degradation A375.10 BRAF 24 hours DC50, A375.10 cells, HiBiT, BRAF V600E, 24 hours) less than 1 µM; (read-out: HiBiT-Degradation A375.10 BRAF 24 hours IP, A375.10 cells, HiBiT, BRAF V600E, 24 hours) less than 1 µM.

For the compound `CCN(C)S(=O)(=O)Nc1ccc(F)c(Oc2ccc3ncn(C4CC5(CCN(C6CCC(c7cc8c(cc7F)c(N7CCC(=O)NC7=O)nn8C)CC6F)CC5)C4)c(=O)c3c2)c1C#N` (single isomer, unassigned) [Compound 83, 6-[2-cyano-3-[[ethyl(methyl)sulfamoyl]amino]-6-fluoro-phenoxy]-3-[7-[4-[3-(2,4-dioxohexahydropyrimidin-1-yl)-5-fluoro-1-methyl-indazol-6-yl]-2-fluoro-cyclohexyl]-7-azaspiro[3.5]nonan-2-yl]-4-oxo-quinazoline], the DC50 under setting [1] is less than 1 µM; the DC50 under setting [2] was less than 1 µM; the DC50 under setting [7] is less than 1 µM; the DC50 under setting [8] is less than 1 µM; the DC50 under setting [9] is less than 1 µM; the DC50 under setting [10] is less than 1 µM. The maximum response (Emax) is, setting by setting: under setting [5], less than 50%; under setting [6], less than 50%; under setting [3], less than 50%.

Regarding `CCN(C)S(=O)(=O)Nc1ccc(F)c(Oc2ccc3ncc(OC4CCN(C5CCC(c6ccc(NC7CCC(=O)NC7=O)cc6F)CC5)CC4)nc3c2)c1C#N` (single isomer, unassigned) [Compound 110, 7-[2-cyano-3-[[ethyl(methyl)sulfamoyl]amino]-6-fluoro-phenoxy]-2-[[1-[4-[4-[(2,6-dioxo-3-piperidyl)amino]-2-fluoro-phenyl]cyclohexyl]-4-piperidyl]oxy]quinoxaline], the DC50 under setting [1] was less than 1 µM; the DC50 under setting [2] is less than 1 µM; the DC50 under setting [7] was less than 1 µM; the DC50 under setting [8] was less than 1 µM; the DC50 under setting [9] was less than 1 µM; the DC50 under setting [10] is less than 1 µM. Also, the Emax is, setting by setting: under setting [4], 50 to 90%; under setting [5], less than 50%; under setting [6], less than 50%.

For `CCN(C)S(=O)(=O)Nc1ccc(F)c(Oc2ccc3ncn([C@H]4CCC5(CCN(C6CCC(c7ccc(NC8CCC(=O)NC8=O)cc7F)CC6)CC5)C4)c(=O)c3c2)c1C#N` (single isomer, unassigned) [Compound 24], the DC50 under setting [1] is less than 1 µM; the DC50 under setting [2] is less than 1 µM; the DC50 under setting [7] is less than 1 µM; the DC50 under setting [8] was less than 1 µM; the DC50 under setting [9] was less than 1 µM; the DC50 under setting [10] is less than 1 µM. Besides, the Emax reads like this: under setting [4], less than 50%; under setting [5], less than 50%; under setting [6], less than 50%.

Regarding `CCN(C)S(=O)(=O)Nc1ccc(F)c(Oc2ccc3ncn(C4CC5(CCN(C6CCC(c7cc8c(cc7F)c(N7CCC(=O)NC7=O)nn8C)CC6)CC5)C4)c(=O)c3c2)c1C#N` (single isomer, unassigned) [Compound 8, 6-[2-cyano-3-[[ethyl(methyl)sulfamoyl]amino]-6-fluoro-phenoxy]-3-[7-[4-[3-(2,4-dioxohexahydropyrimidin-1-yl)-5-fluoro-1-methyl-indazol-6-yl]cyclohexyl]-7-azaspiro[3.5]nonan-2-yl]-4-oxo-quinazoline], the DC50 under setting [1] was less than 1 µM; the DC50 under setting [2] is less than 1 µM; the DC50 under setting [7] is less than 1 µM; the DC50 under setting [8] is less than 1 µM; the DC50 under setting [9] was less than 1 µM; the DC50 under setting [10] is less than 1 µM. Moreover, the Emax under setting [4] is less than 50%. For the same compound, the “HiBiT-Degradation A375.10 BRAF 6 hours Emax” value (A375.10 cells, BRAF V600E, 6 hours, residual protein remaining) is “*** (<=50%)”. Also, the “HiBiT-Degradation A375.10 BRAF 24 hours Emax” value (A375.10 cells, HiBiT, BRAF V600E, 24 hours) was “*** (<=50%)”.

`Cn1nc(N2CCC(=O)NC2=O)c2cc(F)c(N3CC4(CC(N5CCC6(CC5)C[C@@H](n5cnc7ccc(Oc8c(F)ccc(NS(=O)(=O)N9CC%10(CCC%10)C9)c8C#N)cc7c5=O)CO6)C4)C3)cc21` [Compound 254, N-[2-cyano-3-[3-[(3R)-8-[2-[3-(2,4-dioxohexahydropyrimidin-1-yl)-5-fluoro-1-methyl-indazol-6-yl]-2-azaspiro[3.3]heptan-6-yl]-1-oxa-8-azaspiro[4.5]decan-3-yl]-4-oxo-quinazolin-6-yl]oxy-4-fluoro-phenyl]-2-azaspiro[3.3]heptane-2-sulfonamide]: the DC50 reads like this: under setting [1], less than 1 µM; under setting [2], less than 1 µM. In addition, the Emax under setting [3] lay within 50 to 90%.

As to `CCN(C)S(=O)(=O)Nc1ccc(F)c(Oc2ccc3ncn([C@H]4COC5(CCC(N6CC7(CN(c8ccc(NC9CCC(=O)NC9=O)cc8F)C7)C6)CC5)C4)c(=O)c3c2)c1C#N` (stereo partly drawn) [Compound 30, 6-[2-cyano-3-[[ethyl(methyl)sulfamoyl]amino]-6-fluoro-phenoxy]-3-[(3R)-8-[6-[4-[(2,6-dioxo-3-piperidyl)amino]-2-fluoro-phenyl]-2,6-diazaspiro[3.3]heptan-2-yl]-1-oxaspiro[4.5]decan-3-yl]-4-oxo-quinazoline], the DC50 runs as follows: under setting [1], less than 1 µM; under setting [2], less than 1 µM; under setting [7], less than 1 µM; under setting [8], less than 1 µM; under setting [9], less than 1 µM; under setting [10], less than 1 µM. In addition, the Emax was less than 50% under setting [5], less than 50% under setting [6] and less than 50% under setting [3].

Take `CCN(C)S(=O)(=O)Nc1ccc(F)c(Oc2ccc3ncn([C@H]4COC5(CCN(C6CCC(c7cc8c(cc7F)c(N7CCC(=O)NC7=O)nn8C)CC6)CC5)C4)c(=O)c3c2)c1F` (single isomer, unassigned) [Compound 71]: the DC50 by setting is: under setting [1], less than 1 µM; under setting [2], less than 1 µM; under setting [7], less than 1 µM; under setting [8], less than 1 µM; under setting [9], less than 1 µM; under setting [10], less than 1 µM. The Emax runs as follows: under setting [4], less than 50%; under setting [5], less than 50%; under setting [6], less than 50%.

Consider `CN(CCO)S(=O)(=O)Nc1ccc(F)c(Oc2ccc3ncn(C4CC5(CCN(C6CCC(c7cc8c(cc7F)c(N7CCC(=O)NC7=O)nn8C)CC6)CC5)C4)c(=O)c3c2)c1C#N` (single isomer, unassigned) [Compound 81, 6-[2-cyano-6-fluoro-3-[[2-hydroxyethyl(methyl)sulfamoyl]amino]phenoxy]-3-[7-[4-[3-(2,4-dioxohexahydropyrimidin-1-yl)-5-fluoro-1-methyl-indazol-6-yl]cyclohexyl]-7-azaspiro[3.5]nonan-2-yl]-4-oxo-quinazoline], for which the DC50 is less than 1 µM under setting [1]; less than 1 µM under setting [2]; less than 1 µM under setting [7]; less than 1 µM under setting [8]; less than 1 µM under setting [9]; less than 1 µM under setting [10]. Also, the Emax runs as follows: under setting [4], 50 to 90%; under setting [5], less than 50%; under setting [6], less than 50%.
